Reference: BindingDB's records for doi:10.1021/acs.biochem.5b00536 (University of Pennsylvania, 2015)

How the values were obtained:
Histone deacetylase 8 = target: T1, Histone deacetylase 8 (Homo sapiens, UniProt Q9BY41); experiment: HDAC8 Fluorimetric Assay; conditions: pH 8.2
T1 sequence (Q9BY41 whole entry): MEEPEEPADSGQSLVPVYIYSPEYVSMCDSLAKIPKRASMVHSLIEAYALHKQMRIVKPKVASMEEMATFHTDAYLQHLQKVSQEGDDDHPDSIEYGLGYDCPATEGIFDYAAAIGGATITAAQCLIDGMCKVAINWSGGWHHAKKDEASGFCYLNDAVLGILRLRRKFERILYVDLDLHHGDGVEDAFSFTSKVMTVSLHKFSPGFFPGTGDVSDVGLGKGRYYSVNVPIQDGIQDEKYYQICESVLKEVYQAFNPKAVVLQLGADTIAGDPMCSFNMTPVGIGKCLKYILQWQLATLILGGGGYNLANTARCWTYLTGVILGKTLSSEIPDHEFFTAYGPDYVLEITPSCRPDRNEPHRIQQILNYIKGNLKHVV
Procedure: Activity assays were conducted at 25 °C and contained 500 nM HDAC8 enzyme, 150 μM Ac-Arg-His-Lys(Ac)-Lys(Ac)-aminomethylcoumarin substrate (BML-KI178, Enzo Life Sciences), and 0−10 mM inhibitor in assay buffer [25 mM Tris (pH 8.2), 137 mM NaCl, 2.7 mM KCl, and 1 mM MgCl2; 250 μM tris(2-carboxyethyl)phosphine was added for the assay of thiol compound 2] in a final volume of 50 μL. […] After 30 min, reactions were quenched by adding 100 μM M344 (Sigma-Aldrich) and the appropriate Fluor-de-Lys developer (BMLKI176, Enzo Life Sciences, 50 μL). Fluorescence was measured after 45 min using a Fluoroskan II plate reader (excitation at 355 nm, emission at 460 nm).

[1] = target: T2, Acetylpolyamine amidohydrolase (Mycoplana ramosa, UniProt Q48935); experiment: APAH Fluorimetric Assay; conditions: pH 8.2
T2 sequence (Q48935 whole entry): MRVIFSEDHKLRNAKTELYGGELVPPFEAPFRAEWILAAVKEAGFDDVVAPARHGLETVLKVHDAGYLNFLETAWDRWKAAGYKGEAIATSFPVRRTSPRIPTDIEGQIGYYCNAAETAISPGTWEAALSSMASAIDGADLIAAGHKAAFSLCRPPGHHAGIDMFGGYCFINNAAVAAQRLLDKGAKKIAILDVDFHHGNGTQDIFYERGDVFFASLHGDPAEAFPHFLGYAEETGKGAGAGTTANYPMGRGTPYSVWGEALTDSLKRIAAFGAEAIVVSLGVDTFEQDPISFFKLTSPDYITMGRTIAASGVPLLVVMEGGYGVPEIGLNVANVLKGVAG
Procedure: Activity assays were conducted at 25 °C and contained 250 nM APAH (∼50% Zn2+ occupancy), 150 μM substrate, and 0−250 μM inhibitor in assay buffer [25 mM Tris (pH 8.2), 137 mM NaCl, 2.7 mM KCl, and 1 mM MgCl2] in a final volume of 50 μL. […] After 30 min, reactions were quenched by adding 100 μM M344 (Sigma-Aldrich) and the appropriate Fluor-de-Lys developer (BML-KI105, Enzo Life Sciences, 50 μL). Fluorescence was measured after 45 min using a Fluoroskan II plate reader (excitation at 355 nm, emission at 460 nm).

SMILES	IC50 (Histone deacetylase 8)	IC50 [1]
NCCCCCC(=O)NO	19000 nM	130 nM
NCCCCCCC(=O)NO	5300 nM	68 nM
NCCCCCCCC(=O)NO	2200 nM	150 nM
NCCCCC(=O)NO [5-Amino-N-hydroxypentanamide (4)]	120000 nM	170 nM
NCCCNCCCCCS [(3-azaniumylpropyl)(5-sulfanylpentyl)azanium (2)]	12000 nM	
NCCCNCCCCCC(=O)C(F)(F)F [(3-azaniumylpropyl)(7,7,7-trifluoro-6-oxoheptyl)azanium (1)]	260 nM	
NCCCNCCCCCC(=O)NO [(3-azaniumylpropyl)[5-(hydroxycarbamoyl)pentyl]azanium (3)]	14000 nM	
